In US7612064B2, “Sulfopyrroles” (Takeda Pharmaceutical Company Limited, priority 2003, dated 2009):

Columns and labels:
[1] = test system: Jurkat; experiment: MTS proliferation assay; type: cell-based, human; conditions: 72 h
Method in brief: (§1)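 Compounds at final 10/3/1/0.3 μM (added in complete medium, ≤5% DMSO); 72 h, culture conditions; + MTS, 3 h; A492.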

[2] = test system: HeLa; experiment: MTS proliferation assay; type: cell-based, human; conditions: 72 h
Method in brief: as §1

[3] = Hoechst 33342 nuclear staining; type: cell-based; conditions: for Hoechst 33342 nuclear staining score, HeLa: HeLa cells; for Hoechst 33342 nuclear staining score, Jurkat: Jurkat cells; for Hoechst 33342 nuclear staining score, H460: H460 cells; for Hoechst 33342 nuclear staining score, Jily: Jily cells; for Hoechst 33342 nuclear staining score, MRC5: MRC5 cells; for Hoechst 33342 nuclear staining score, PBLs: key: 0: no activity; 1: weak activity comprising less than 50% of the cells; 2: strong activity comprising more than 50% of the cells;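 for all read-outs here: apoptotic nuclei scored 0 none 1 weak under 50% of cells 2 strong over 50% of cells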
Method in brief: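 Cells were plated in 96 well tissue culture plates in 80 μl complete medium, with 3-5*10^3 cells per well for adherent lines and 8-10*10^3 for suspension lines. Adherent cells spread for 24 h before treatment, while suspension cells were treated right after seeding. Compounds were added in 20 μl complete medium containing max 5% DMSO.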

[4] = test system: MRC5; experiment: MTS proliferation assay; type: cell-based; conditions: MRC5, 72 h
Method in brief: as §1

[5] = conc 0.1 (final concentrations in μM), 24 h or 48 h incubation
[6] = conc 0.3 (final concentrations in μM), 24 h or 48 h incubation
[7] = conc 1 (final concentrations in μM), 24 h or 48 h incubation
[8] = conc 3 (final concentrations in μM), 24 h or 48 h incubation

Cc1ccc(S(=O)(=O)n2cc(CN3CCN(c4ccccn4)CC3)cc2-c2ccc3c(c2)OCO3)cc1 [Example 32]
IC50 [1]: > 1 µM | IC50 [2]: > 1 µM | Hoechst 33342 nuclear staining score, HeLa [3, 5]: 0 | Hoechst 33342 nuclear staining score, HeLa [3, 6]: 0 | Hoechst 33342 nuclear staining score, HeLa [3, 7]: 0 | Hoechst 33342 nuclear staining score, HeLa [3, 8]: 0 | Hoechst 33342 nuclear staining score, Jurkat [3, 5]: 0 | Hoechst 33342 nuclear staining score, Jurkat [3, 6]: 0 | Hoechst 33342 nuclear staining score, Jurkat [3, 7]: 0 | Hoechst 33342 nuclear staining score, Jurkat [3, 8]: 0 | IC50 [4]: > 1 µM

CCN1CCN(CCCNCc2cc(-c3ccc4c(c3)OCO4)n(S(=O)(=O)c3ccc(C)cc3)c2)CC1 [Example 29]
IC50 [1]: > 1 µM | IC50 [2]: > 1 µM | Hoechst 33342 nuclear staining score, HeLa [3, 5]: 0 | Hoechst 33342 nuclear staining score, HeLa [3, 6]: 0 | Hoechst 33342 nuclear staining score, HeLa [3, 7]: 0 | Hoechst 33342 nuclear staining score, HeLa [3, 8]: 0 | Hoechst 33342 nuclear staining score, Jurkat [3, 5]: 0 | Hoechst 33342 nuclear staining score, Jurkat [3, 6]: 0 | Hoechst 33342 nuclear staining score, Jurkat [3, 7]: 0 | Hoechst 33342 nuclear staining score, Jurkat [3, 8]: 0 | IC50 [4]: > 1 µM

CCN1CCCC1CNCc1cc(-c2ccc3c(c2)OCO3)n(S(=O)(=O)c2ccc(C)cc2)c1 (centres unmarked) [Example 21]
IC50 [1]: > 1 µM | IC50 [2]: > 1 µM | Hoechst 33342 nuclear staining score, HeLa [3, 5]: 0 | Hoechst 33342 nuclear staining score, HeLa [3, 6]: 0 | Hoechst 33342 nuclear staining score, HeLa [3, 7]: 0 | Hoechst 33342 nuclear staining score, HeLa [3, 8]: 0 | Hoechst 33342 nuclear staining score, Jurkat [3, 5]: 0 | Hoechst 33342 nuclear staining score, Jurkat [3, 6]: 0 | Hoechst 33342 nuclear staining score, Jurkat [3, 7]: 0 | Hoechst 33342 nuclear staining score, Jurkat [3, 8]: 0 | IC50 [4]: > 1 µM

Cc1ccc(S(=O)(=O)n2cc(-c3ccc(C(N)=O)cc3)cc2-c2cccs2)cc1 [Example 52]
IC50 [1]: > 1 µM | IC50 [2]: > 1 µM | Hoechst 33342 nuclear staining score, HeLa [3, 5]: 0 | Hoechst 33342 nuclear staining score, HeLa [3, 6]: 0 | Hoechst 33342 nuclear staining score, HeLa [3, 7]: 0 | Hoechst 33342 nuclear staining score, HeLa [3, 8]: 0 | Hoechst 33342 nuclear staining score, Jurkat [3, 5]: 0 | Hoechst 33342 nuclear staining score, Jurkat [3, 6]: 0 | Hoechst 33342 nuclear staining score, Jurkat [3, 7]: 0 | Hoechst 33342 nuclear staining score, Jurkat [3, 8]: 0 | IC50 [4]: > 1 µM

COc1cc(-c2cc(-c3cccnc3)cn2S(=O)(=O)c2ccc(OC(F)(F)F)cc2)cc(OC)c1OC [Example 77]
IC50 [1]: > 1 µM | IC50 [2]: > 1 µM | Hoechst 33342 nuclear staining score, H460 ([3]; conc 0.1): 0 | Hoechst 33342 nuclear staining score, H460 ([3]; conc 0.3): 0 | Hoechst 33342 nuclear staining score, H460 ([3]; conc 1): 0 | Hoechst 33342 nuclear staining score, H460 ([3]; conc 3): 1 (weak activity comprising less than 50% of the cells) | Hoechst 33342 nuclear staining score, HeLa ([3]; conc 0.1): 0 | Hoechst 33342 nuclear staining score, HeLa ([3]; conc 0.3): 0 | Hoechst 33342 nuclear staining score, HeLa ([3]; conc 1): 0 | Hoechst 33342 nuclear staining score, HeLa ([3]; conc 3): 0 | Hoechst 33342 nuclear staining score, Jily ([3]; conc 0.1): 0 | Hoechst 33342 nuclear staining score, Jily ([3]; conc 0.3): 0 | Hoechst 33342 nuclear staining score, Jily ([3]; conc 1): 0 | Hoechst 33342 nuclear staining score, Jily ([3]; conc 3): 1 (weak activity comprising less than 50% of the cells) | Hoechst 33342 nuclear staining score, Jurkat ([3]; conc 0.1): 0 | Hoechst 33342 nuclear staining score, Jurkat ([3]; conc 0.3): 0 | Hoechst 33342 nuclear staining score, Jurkat ([3]; conc 1): 0 | Hoechst 33342 nuclear staining score, Jurkat ([3]; conc 3): 2 (strong activity comprising more than 50% of the cells) | Hoechst 33342 nuclear staining score, MRC5 ([3]; conc 0.1): 0 | Hoechst 33342 nuclear staining score, MRC5 ([3]; conc 0.3): 0 | Hoechst 33342 nuclear staining score, MRC5 ([3]; conc 1): 0 | Hoechst 33342 nuclear staining score, MRC5 ([3]; conc 3): 0 | Hoechst 33342 nuclear staining score, PBLs ([3]; conc 0.1): 0 | Hoechst 33342 nuclear staining score, PBLs ([3]; conc 0.3): 0 | Hoechst 33342 nuclear staining score, PBLs ([3]; conc 1): 0 | Hoechst 33342 nuclear staining score, PBLs ([3]; conc 3): 0 | IC50 [4]: > 1 µM
